IC50 data for 41 compounds are collected here from US20170037028A1 (BAYER PHARMA AKTIENGESELLSCHAFT, priority 2013, published 2017).

One test addresses T1, GLUT1 (Homo sapiens, UniProt P11166).
T1 sequence (P11166 1-492): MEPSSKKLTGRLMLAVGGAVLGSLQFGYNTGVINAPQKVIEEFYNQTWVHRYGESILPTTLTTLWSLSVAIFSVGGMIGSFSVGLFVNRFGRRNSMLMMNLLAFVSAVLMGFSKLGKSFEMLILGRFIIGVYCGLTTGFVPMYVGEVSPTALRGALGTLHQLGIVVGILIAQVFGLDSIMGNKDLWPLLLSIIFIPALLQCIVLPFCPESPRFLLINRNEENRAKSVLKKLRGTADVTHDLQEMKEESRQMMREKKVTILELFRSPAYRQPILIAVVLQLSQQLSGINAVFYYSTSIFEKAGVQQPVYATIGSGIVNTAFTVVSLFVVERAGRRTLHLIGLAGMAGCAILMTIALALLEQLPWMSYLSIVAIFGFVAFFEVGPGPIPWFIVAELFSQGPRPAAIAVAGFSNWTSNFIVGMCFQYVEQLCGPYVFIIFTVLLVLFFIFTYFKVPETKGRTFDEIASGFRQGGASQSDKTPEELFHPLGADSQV
Description: Indirect measurement of GLUT1 activity by quantification of intracellular ATP levels (glucose induced ATP increase). It counts as cell-based. Also on record: endogenous in cells; host or cells: DLD1 or CHO-K1. As to conditions: DLD1 cells; 0.1 mM glucose, 1 μM Rotenone, 15 min; CellTiter-Glo ATP readout; IC50 values standardized to cytochalasin B IC50 values; read-out: IC50 regarding glucose induced ATP increase (GLUT1 inhibition). Summed up: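 DLD1 or CHO-K1 cells were starved overnight in glucose-free medium with 1% FCS, then combined with an oxidative phosphorylation inhibitor. GLUT1 activity was read as glucose-induced ATP increase, GLUT2 as fructose-induced. Intracellular ATP was quantified by CellTiter-Glo luminescence.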
(ATP-based viability assays read luminescence as a measure of living cells.)
As for `Cc1c(NC(=O)c2cc(C(N)=O)nc3cc(F)ccc23)c(C(F)(F)F)nn1Cc1ccc(C#N)nc1` [Example 290, N^4-{1-[(6-cyanopyridin-3-yl)methyl]-5-methyl-3-(trifluoromethyl)-1H-pyrazol-4-yl}-7-fluoroquinoline-2,4-dicarboxamide], the 50% inhibitory concentration (IC50) (as a rule, the concentration that gives 50% inhibition) stood at 31.7 nM.

The test is the same for the next values; noted with them: read-out: IC50 regarding glucose induced ATP increase (GLUT1 inhibition).
As to `Cc1nn(Cc2cc(C3CC3)on2)c(C)c1NC(=O)c1cc(C(N)=O)nc2cc(F)ccc12` [Example 418, N^4-{1-[(5-cyclopropyl-1,2-oxazol-3-yl)methyl]-3,5-dimethyl-1H-pyrazol-4-yl}-7-fluoroquinoline-2,4-dicarboxamide], the half-inhibitory concentration (IC50) is 4.1 nM.
Still for that read-out and setting: the same measure for `Cc1nn(Cc2ccc(F)cc2)c(C)c1NC(=O)c1ccnc2ccc(Br)cc12` [Example 184, 6-bromo-N-[1-(4-fluorobenzyl)-3,5-dimethyl-1H-pyrazol-4-yl]quinoline-4-carboxamide]: 110 nM; for `Cc1c(NC(=O)c2cc(C(N)=O)nc3cc(F)ccc23)c(C(F)(F)F)nn1Cc1cccc(C(N)=O)c1` [Example 1601]: 24.6 nM.
Take `Cc1c(NC(=O)c2cc(C(N)=O)nc3ccccc23)c(C(F)(F)F)nn1Cc1ccc(C2CCC2)cc1` [Example 1617]: the concentration for half-maximal inhibition (IC50) turned out to be 54.9 nM.
`Cc1nn(Cc2ccc(F)cc2)c(C)c1NC(=O)c1cc(C2CC2)nc2c(Br)cccc12` [Example 16, 8-bromo-2-cyclopropyl-N-[1-(4-fluorobenzyl)-3,5-dimethyl-1H-pyrazol-4-yl]quinoline-4-carboxamide]: the 50% inhibitory concentration (IC50) was determined as 12.1 nM.
On the same count and under the same terms, under `Cc1nn(Cc2ccc(OC(F)(F)F)cc2)c(C)c1NC(=O)c1cc(C(N)=O)nc2ccccc12` [Example 1460] stands 1.9 nM.
Same read-out and setting: under `COc1cc(C(=O)Nc2c(C)nn(Cc3ccc(OC(F)(F)F)cc3)c2C)c2ccccc2n1` [Example 23, N-{3,5-dimethyl-1-[4-(trifluoromethoxy)benzyl]-1H-pyrazol-4-yl}-2-methoxyquinoline-4-carboxamide] stands 15.4 nM; under `COCCCS(=O)(=O)N1CCC(Cn2nc(C)c(NC(=O)c3cc(C(N)=O)nc4ccccc34)c2C)CC1` [Example 1513], 60.8 nM.
On to `Cc1ccc2nc(C)cc(C(=O)Nc3c(C(F)(F)F)nn(Cc4ccc(F)cc4)c3C)c2c1` [Example 73, N-[1-(4-fluorobenzyl)-5-methyl-3-(trifluoromethyl)-1H-pyrazol-4-yl]-2,6-dimethylquinoline-4-carboxamide], for which the IC50 came out at 177 nM.
Same read-out and setting: the same measure for `Cc1cccc(Cn2nc(C)c(NC(=O)c3cc(C(F)(F)F)nc4c(Cl)cc(Cl)cc34)c2C)c1` [Example 28, 6,8-dichloro-N-[3,5-dimethyl-1-(3-methylbenzyl)-1H-pyrazol-4-yl]-2-(trifluoromethyl)quinoline-4-carboxamide]: 16.8 nM; for `Cc1nn(Cc2ccc(C(=O)NCCN(CCO)CCO)cc2)c(C)c1NC(=O)c1cc(C(F)(F)F)nc2ccc(Br)cc12` [Example 1121]: 65.5 nM; for `CC(=O)NCCNC(=O)c1ccc(Cn2nc(C)c(NC(=O)c3cc(C(F)(F)F)nc4ccc(Br)cc34)c2C)cc1` [Example 1168]: 179 nM.
On the same count and under the same terms, under `Cc1c(NC(=O)c2cc(C(N)=O)nc3cc(F)c(Cl)cc23)c(C(F)(F)F)nn1Cc1ccncc1` [Example 1368] stands 29.3 nM; under `Cc1nn(Cc2ccc(C(F)(F)F)cc2)c(C)c1NC(=O)c1cc(C(N)=O)nc2cc(F)c(Cl)cc12` [Example 1598], 1.4 nM.
On the same count and under the same terms, the same measure for `CC(C)c1nn(Cc2ccc(C#N)cc2)c(C(F)(F)F)c1NC(=O)c1cc(C(N)=O)nc2cc(F)ccc12` [Example 320, N^4-[1-(4-cyanobenzyl)-3-isopropyl-5-(trifluoromethyl)-1H-pyrazol-4-yl]-7-fluoroquinoline-2,4-dicarboxamide]: 8 nM; for `Cc1nn(Cc2cc(F)cc(F)c2)c(C)c1NC(=O)c1cc(C(F)(F)F)nc2c(Cl)cc(Cl)cc12` [Example 1244]: 1590 nM.
Consider `COc1ccc(Cn2nc(C)c(NC(=O)c3cc(OC)nc4ccccc34)c2C)cc1` [Example 1, 2-methoxy-N-[1-(4-methoxybenzyl)-3,5-dimethyl-1H-pyrazol-4-yl]quinoline-4-carboxamide], for which the half-inhibitory concentration (IC50) came to 1.6 nM.
On the same count and under the same terms, under `CNC(=O)N(C)CCNC(=O)c1ccc(Cn2nc(C)c(NC(=O)c3cc(C(F)(F)F)nc4ccc(Br)cc34)c2C)cc1` [Example 1043] stands 8.8 nM; under `COc1cc(C(=O)Nc2c(C)nn(Cc3cc(F)ccc3F)c2C)c2ccccc2n1` [Example 1304], 11100 nM; under `Cc1nn(Cc2ccc(C#N)cc2)c(C)c1NC(=O)c1cc(C(F)(F)F)nc2cc(F)c(F)cc12` [Example 169, N-[1-(4-cyanobenzyl)-3,5-dimethyl-1H-pyrazol-4-yl]-6,7-difluoro-2-(trifluoromethyl)quinoline-4-carboxamide], 50.5 nM.
For `Cc1cc(Cn2nc(C(F)(F)F)c(NC(=O)c3cc(C(N)=O)nc4cc(F)c(Cl)cc34)c2C)on1` [Example 420, 6-chloro-7-fluoro-N^4-{5-methyl-1-[(3-methyl-1,2-oxazol-5-yl)methyl]-3-(trifluoromethyl)-1H-pyrazol-4-yl}quinoline-2,4-dicarboxamide], the IC50 was 4.9 nM.
Still for that read-out and setting: under `Cc1nn(Cc2ccc(F)cc2F)c(C)c1NC(=O)c1cc(C(N)=O)nc2ccc(Br)cc12` [Example 1490] stands 3.7 nM.
In the case of `Cc1c(NC(=O)c2cc(C(=O)NCCN3CCOCC3)nc3cc(F)ccc23)c(C(F)(F)F)nn1Cc1ccc(C#N)cc1` [Example 342, N^4-[1-(4-cyanobenzyl)-5-methyl-3-(trifluoromethyl)-1H-pyrazol-4-yl]-7-fluoro-N^2-[2-(morpholin-4-yl)ethyl]quinoline-2,4-dicarboxamide], the concentration for half-maximal inhibition (IC50) stood at 336 nM.
On the same count and under the same terms, the same measure for `Cc1nn(C(C)c2ccc(F)cc2)c(C)c1NC(=O)c1cc(C(F)(F)F)nc2ccc(Br)cc12` (racemic) [Example 1374]: 42.6 nM; for `COCCCNC(=O)c1ccc(Cn2nc(C)c(NC(=O)c3cc(C(F)(F)F)nc4ccc(Br)cc34)c2C)cc1` [Example 1120]: 65.5 nM.
Same read-out and setting: the same measure for `Cc1nn(Cc2ccc(C(=O)Nc3nccs3)cc2)c(C)c1NC(=O)c1cc(C(F)(F)F)nc2ccc(Br)cc12` [Example 1047]: 11.2 nM.
Take `Cc1ccc2nc(C)cc(C(=O)Nc3c(C)nn(C/C=C/c4ccccc4)c3C)c2c1` [Example 1226]: the IC50 came out at 924 nM.
For the compound `Cc1nn(Cc2ccc(C(=O)NCCN3CCOCC3)cc2)c(C)c1NC(=O)c1cc(C(F)(F)F)nc2ccc(Br)cc12` [Example 136, 6-bromo-N-[3,5-dimethyl-1-(4-{[2-(morpholin-4-yl)ethyl]carbamoyl}benzyl)-1H-pyrazol-4-yl]-2-(trifluoromethyl)quinoline-4-carboxamide], the IC50 stood at 9 nM.
The same measure, in the same setting: under `COCc1ccc(Cn2nc(C)c(NC(=O)c3cc(C(N)=O)nc4cc(F)ccc34)c2C)cc1` [Example 1582] stands 3.9 nM.
The same measure, in the same setting: under `Cc1c(NC(=O)c2cc(C(N)=O)nc3cccc(F)c23)c(C(F)(F)F)nn1Cc1cccc(S(C)(=O)=O)c1` [Example 1639] stands 273 nM; under `Cc1nn(Cc2ccc(C#N)s2)c(C)c1NC(=O)c1cc(C(N)=O)nc2cc(F)ccc12` [Example 422], 5 nM; under `Cc1c(NC(=O)c2cc(C(N)=O)nc3ccccc23)c(C(F)(F)F)nn1Cc1ccc(C(C)C)cc1` [Example 1407], 28.7 nM.
Same read-out and setting: under `Cc1c(NC(=O)c2cc(C(N)=O)nc3cc(F)ccc23)c(C(F)(F)F)nn1Cc1ncco1` [Example 1529] stands 402 nM.
As for `Cc1nn(Cc2ccc(C#N)cc2)c(C)c1NC(=O)c1cc(C(N)=O)nc2cc(F)cc(F)c12` [Example 253, N^4-[1-(4-cyanobenzyl)-3,5-dimethyl-1H-pyrazol-4-yl]-5,7-difluoroquinoline-2,4-dicarboxamide], the IC50 came out at 0.5 nM.
Same read-out and setting: the same measure for `COc1cc(C(=O)Nc2c(C(F)(F)F)nn(CCc3ccc(F)cc3)c2C)c2ccccc2n1` [Example 1372]: 950 nM.
On the same count and under the same terms, the same measure for `Cc1c(NC(=O)c2cc(C(=O)NCCCO)nc3cc(F)ccc23)c(C(F)(F)F)nn1Cc1ccc(C#N)cc1` [Example 341, N^4-[1-(4-cyanobenzyl)-5-methyl-3-(trifluoromethyl)-1H-pyrazol-4-yl]-7-fluoro-N^2-(3-hydroxypropyl)quinoline-2,4-dicarboxamide]: 290 nM; for `Cc1c(NC(=O)c2cc(S(C)(=O)=O)nc3ccccc23)c(C(F)(F)F)nn1Cc1ccc(C#N)cc1` [Example 384, N-[1-(4-cyanobenzyl)-5-methyl-3-(trifluoromethyl)-1H-pyrazol-4-yl]-2-(methylsulfonyl)quinoline-4-carboxamide]: 3.6 nM.
Same read-out and setting: the same measure for `Cc1ccc2nc(C)cc(C(=O)Nc3c(C)nn(Cc4ncccc4C)c3C)c2c1` [Example 1285]: 6250 nM; for `Cc1c(NC(=O)c2cc(S(=O)(=O)N(C)C)nc3ccccc23)c(C(F)(F)F)nn1Cc1ccc(C#N)cc1` [Example 1576]: 20.6 nM.
With `COc1cccc(Cn2nc(C)c(NC(=O)c3cc(C(N)=O)nc4cc(F)c(Cl)cc34)c2C)c1` [Example 1453], the concentration for half-maximal inhibition (IC50) came out at 1.4 nM.
